Assay results: ChEMBL document CHEMBL4814047, “Design, synthesis and biological activity of N-(amino)piperazine-containing benzothiazinones against Mycobacterium tuberculosis” (Eur J Med Chem, 2021)
In brackets after ≈: the same amount, converted by molar mass.

Experiments:
[1] = Cytotoxicity against African green monkey Vero cells incubated for 72 hrs by MTT assay; format: cell-based; details: chlorocebus sabaeus
hERG (KCNH2) = hERG (KCNH2) (Homo sapiens, UniProt Q12809); test: Inhibition of human ERG expressed in HEK293 cells at 10 uM by whole cell patch clamp method relative to control; format: cell-based; details: HEK293 cells expressing hERG
[2] = test system: Mycobacterium tuberculosis; test: Antimycobacterial activity against Mycobacterium tuberculosis H37Rv ATCC 27294 incubated for 7 days by microplate alamar blue assay; format: functional; details: H37Rv ATCC 27294, 168 h, time 7 day
[3] = Cmax in ICR mouse at 25 mg/kg, po measured upto 24 hrs by HPLC analysis; format: ADME, organism-based; design: route oral, dose 25 mg/kg, time <=24; details: in vivo
[4] = Half life in ICR mouse at 25 mg/kg, po measured upto 24 hrs by HPLC analysis; format: ADME, organism-based; details: in vivo
[5] = AUC (0 to infinity) in ICR mouse at 25 mg/kg, po measured upto 24 hrs by HPLC analysis; format: ADME, organism-based; design: route oral, dose 25 mg/kg, time <=24; details: in vivo
[6] = MRT in ICR mouse at 25 mg/kg, po measured upto 24 hrs by HPLC analysis; format: ADME, organism-based; details: in vivo
[7] = Tmax in ICR mouse at 25 mg/kg, po measured upto 24 hrs by HPLC analysis; format: ADME, organism-based; details: in vivo

Chain of hERG (KCNH2) (Q12809 whole entry): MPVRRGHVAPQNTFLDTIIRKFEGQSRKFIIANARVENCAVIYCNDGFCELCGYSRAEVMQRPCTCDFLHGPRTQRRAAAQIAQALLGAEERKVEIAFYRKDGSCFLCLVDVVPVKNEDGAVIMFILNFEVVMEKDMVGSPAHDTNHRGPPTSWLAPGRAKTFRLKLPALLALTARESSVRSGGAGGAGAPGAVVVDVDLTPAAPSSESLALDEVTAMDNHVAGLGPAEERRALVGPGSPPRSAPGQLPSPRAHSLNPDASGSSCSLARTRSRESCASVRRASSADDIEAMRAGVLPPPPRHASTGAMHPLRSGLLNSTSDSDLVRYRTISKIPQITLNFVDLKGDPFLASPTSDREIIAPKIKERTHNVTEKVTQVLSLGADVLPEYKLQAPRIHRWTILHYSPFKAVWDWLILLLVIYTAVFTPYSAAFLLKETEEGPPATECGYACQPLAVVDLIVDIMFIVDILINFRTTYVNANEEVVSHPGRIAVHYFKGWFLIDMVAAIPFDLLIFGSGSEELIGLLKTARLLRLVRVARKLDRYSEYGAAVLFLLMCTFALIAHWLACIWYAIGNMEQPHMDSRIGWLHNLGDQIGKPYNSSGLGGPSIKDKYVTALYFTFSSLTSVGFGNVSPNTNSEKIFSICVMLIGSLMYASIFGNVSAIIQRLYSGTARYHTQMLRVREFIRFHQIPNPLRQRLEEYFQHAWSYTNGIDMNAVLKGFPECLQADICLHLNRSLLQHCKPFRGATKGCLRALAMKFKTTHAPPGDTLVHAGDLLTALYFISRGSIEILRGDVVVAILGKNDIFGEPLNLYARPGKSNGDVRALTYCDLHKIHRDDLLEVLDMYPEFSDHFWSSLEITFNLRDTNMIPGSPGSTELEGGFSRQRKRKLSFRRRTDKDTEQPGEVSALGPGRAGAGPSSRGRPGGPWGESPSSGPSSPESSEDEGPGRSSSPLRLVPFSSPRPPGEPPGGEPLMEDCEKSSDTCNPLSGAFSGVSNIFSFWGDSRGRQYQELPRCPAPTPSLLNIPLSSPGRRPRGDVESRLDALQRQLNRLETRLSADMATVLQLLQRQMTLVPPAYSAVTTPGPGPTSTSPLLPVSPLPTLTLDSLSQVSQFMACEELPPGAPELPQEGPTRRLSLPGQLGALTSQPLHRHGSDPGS

Compound	CC50 at 72 h [1] [µg/mL]	MIC [2] [µg/mL]	further results
O=c1nc(N2CCN(/N=C/c3ccc(OC(F)(F)F)cc3)CC2)sc2c([N+](=O)[O-])cc(C(F)(F)F)cc12	> 64	< 0.016	inhibition at 10 µM (hERG (KCNH2)): 88.2%
O=c1nc(NN2CCN(Cc3ccncc3)CC2)sc2c([N+](=O)[O-])cc(C(F)(F)F)cc12	–	> 1	–
CC(NN1CCN(c2nc(=O)c3cc(C(F)(F)F)cc([N+](=O)[O-])c3s2)CC1)c1ccc(OC(F)(F)F)cc1 (stereo unspecified)	> 64	< 0.016	–
O=c1nc(N2CCN(Nc3ccc(C(F)(F)F)cc3)CC2)sc2c([N+](=O)[O-])cc(C(F)(F)F)cc12	> 64	< 0.016	–
O=c1nc(N2CCN(NCc3ccc(Br)cc3)CC2)sc2c([N+](=O)[O-])cc(C(F)(F)F)cc12	> 64	< 0.016	–
O=c1nc(N2CCN(NCc3ccc(F)cc3)CC2)sc2c([N+](=O)[O-])cc(C(F)(F)F)cc12	> 64	< 0.016	–
COc1ccc(CNN2CCN(c3nc(=O)c4cc(C(F)(F)F)cc([N+](=O)[O-])c4s3)CC2)cc1	> 64	< 0.016	–
NN1CCN(c2nc(=O)c3cc(C(F)(F)F)cc([N+](=O)[O-])c3s2)CC1	–	0.941 (≈ 2.51 µM)	–
CC(C)CN(CC(C)C)N1CCN(c2nc(=O)c3cc(C(F)(F)F)cc([N+](=O)[O-])c3s2)CC1	> 64	< 0.016	–
O=c1nc(N2CCN(NCc3ccc(OC(F)(F)F)cc3)CC2)sc2c([N+](=O)[O-])cc(C(F)(F)F)cc12	> 64	< 0.016	inhibition at 10 µM (hERG (KCNH2)): 71.1%
O=C(C1CCCCC1)N1CCN(Nc2nc(=O)c3cc(C(F)(F)F)cc([N+](=O)[O-])c3s2)CC1	–	> 1	–
O=C(NN1CCN(c2nc(=O)c3cc(C(F)(F)F)cc([N+](=O)[O-])c3s2)CC1)c1ccc(C(F)(F)F)cc1	–	0.589 (≈ 1.08 µM)	–
O=c1nc(N2CCN(Nc3ccc(OC(F)(F)F)cc3)CC2)sc2c([N+](=O)[O-])cc(C(F)(F)F)cc12	> 64	< 0.016	inhibition at 10 µM (hERG (KCNH2)): 55.5%
O=c1nc(N2CCN(NCc3ccc(Cl)cc3)CC2)sc2c([N+](=O)[O-])cc(C(F)(F)F)cc12	> 64	< 0.016	–
Cc1cccc(F)c1CNN1CCN(c2nc(=O)c3cc(C(F)(F)F)cc([N+](=O)[O-])c3s2)CC1	> 64	< 0.016	–
CN(c1ccc(OC(F)(F)F)cc1)N1CCN(c2nc(=O)c3cc(C(F)(F)F)cc([N+](=O)[O-])c3s2)CC1	> 64	< 0.016	inhibition at 10 µM (hERG (KCNH2)): 45.6%; Cmax [3]: 1100 ng/mL; half-life [4]: 3.6 h; AUC(0-inf) [5]: 4700 ng·h/mL; MRT [6]: 4.34 h; Tmax [7]: 0.667 h
O=c1nc(N2CCN(NC3CCCCC3)CC2)sc2c([N+](=O)[O-])cc(C(F)(F)F)cc12	> 64	< 0.016	inhibition at 10 µM (hERG (KCNH2)): 20.4%; Cmax [3]: 1960 ng/mL; half-life [4]: 1.28 h; AUC(0-inf) [5]: 4430 ng·h/mL; MRT [6]: 1.47 h; Tmax [7]: 0.583 h
CON=C1CCC(N(C)N2CCN(c3nc(=O)c4cc(C(F)(F)F)cc([N+](=O)[O-])c4s3)CC2)CC1 (stereo unspecified)	> 64	< 0.016	inhibition at 10 µM (hERG (KCNH2)): 22.7%; Cmax [3]: 5140 ng/mL; half-life [4]: 4.09 h; AUC(0-inf) [5]: 15800 ng·h/mL; MRT [6]: 3.89 h; Tmax [7]: 0.5 h
O=c1nc(N2CCN(NCc3cccnc3)CC2)sc2c([N+](=O)[O-])cc(C(F)(F)F)cc12	–	0.228 (≈ 0.489 µM)	–
O=c1nc(NN2CCN(Cc3ccc(OC(F)(F)F)cc3)CC2)sc2c([N+](=O)[O-])cc(C(F)(F)F)cc12	–	> 1	–
Cc1ccc(CNN2CCN(c3nc(=O)c4cc(C(F)(F)F)cc([N+](=O)[O-])c4s3)CC2)cc1	> 64	< 0.016	–
CN(CC1CCCCC1)N1CCN(c2nc(=O)c3cc(C(F)(F)F)cc([N+](=O)[O-])c3s2)CC1	> 64	< 0.016	inhibition at 10 µM (hERG (KCNH2)): 54.6%
O=c1nc(N2CCN(NCC3CCCC3)CC2)sc2c([N+](=O)[O-])cc(C(F)(F)F)cc12	> 64	< 0.016	–

Compound	CC50 at 72 h [1] [µg/mL]	MIC [2] [µg/mL]	further results
O=C(NN1CCN(c2nc(=O)c3cc(C(F)(F)F)cc([N+](=O)[O-])c3s2)CC1)C1CCCCC1	–	0.473 (≈ 0.974 µM)	–
O=c1nc(NN2CCN(CC3CCCCC3)CC2)sc2c([N+](=O)[O-])cc(C(F)(F)F)cc12	–	> 1	–
CON=C1CCC(CN(C)N2CCN(c3nc(=O)c4cc(C(F)(F)F)cc([N+](=O)[O-])c4s3)CC2)CC1 (stereo unspecified)	–	0.025 (≈ 0.0473 µM)	–
O=c1nc(N2CCN(NCc3cccc(C(F)(F)F)c3)CC2)sc2c([N+](=O)[O-])cc(C(F)(F)F)cc12	> 64	< 0.016	–
CC(c1ccc(OC(F)(F)F)cc1)N(C)N1CCN(c2nc(=O)c3cc(C(F)(F)F)cc([N+](=O)[O-])c3s2)CC1 (stereo unspecified)	> 64	< 0.016	inhibition at 10 µM (hERG (KCNH2)): 46.9%; Cmax [3]: 944 ng/mL; half-life [4]: 3.89 h; AUC(0-inf) [5]: 2870 ng·h/mL; MRT [6]: 2.66 h; Tmax [7]: 0.833 h
O=c1nc(N2CCN(NCC3CCCCC3)CC2)sc2c([N+](=O)[O-])cc(C(F)(F)F)cc12	29.3 (≈ 62.1 µM)	< 0.016	inhibition at 10 µM (hERG (KCNH2)): 64.4%
C/C(=N\N1CCN(c2nc(=O)c3cc(C(F)(F)F)cc([N+](=O)[O-])c3s2)CC1)c1ccc(OC(F)(F)F)cc1	> 64	< 0.016	–
O=c1nc(N2CCN(N(CC3CCCC3)CC3CCCC3)CC2)sc2c([N+](=O)[O-])cc(C(F)(F)F)cc12	–	0.0803 (≈ 0.149 µM)	–
CON=C1CCC(NN2CCN(c3nc(=O)c4cc(C(F)(F)F)cc([N+](=O)[O-])c4s3)CC2)CC1 (stereo unspecified)	–	0.028 (≈ 0.0559 µM)	–
CC(C)CNN1CCN(c2nc(=O)c3cc(C(F)(F)F)cc([N+](=O)[O-])c3s2)CC1	–	0.0281 (≈ 0.0651 µM)	–
O=C(NN1CCN(c2nc(=O)c3cc(C(F)(F)F)cc([N+](=O)[O-])c3s2)CC1)c1ccc(OC(F)(F)F)cc1	–	0.965 (≈ 1.71 µM)	–
O=c1nc(N2CCN(NCc3ccc(C(F)(F)F)cc3)CC2)sc2c([N+](=O)[O-])cc(C(F)(F)F)cc12	> 64	< 0.016	–
CCC(CC)CN(CC(CC)CC)N1CCN(c2nc(=O)c3cc(C(F)(F)F)cc([N+](=O)[O-])c3s2)CC1	–	0.49 (≈ 0.902 µM)	–
O=c1nc(N2CCN(NCc3ccc(O)cc3)CC2)sc2c([N+](=O)[O-])cc(C(F)(F)F)cc12	–	0.9 (≈ 1.87 µM)	–
O=c1nc(N2CCN(NS(=O)(=O)C3CCCCC3)CC2)sc2c([N+](=O)[O-])cc(C(F)(F)F)cc12	–	> 1	–
O=c1nc(N2CCN(NCc3cc(F)cc(F)c3)CC2)sc2c([N+](=O)[O-])cc(C(F)(F)F)cc12	> 64	< 0.016	–
CON=C1CCC(CNN2CCN(c3nc(=O)c4cc(C(F)(F)F)cc([N+](=O)[O-])c4s3)CC2)CC1 (stereo unspecified)	–	0.057 (≈ 0.111 µM)	–
O=c1nc(N2CCN(NCCC3CCCCC3)CC2)sc2c([N+](=O)[O-])cc(C(F)(F)F)cc12	> 64	< 0.016	inhibition at 10 µM (hERG (KCNH2)): 76.4%
CC(C)(C)c1ccc(CNN2CCN(c3nc(=O)c4cc(C(F)(F)F)cc([N+](=O)[O-])c4s3)CC2)cc1	> 64	< 0.016	–
NNC(=O)c1ccncc1 [ISONIAZID]	–	0.0366 (≈ 0.267 µM)	–
O=c1nc(N2CCN(CC3CCCCC3)CC2)sc2c([N+](=O)[O-])cc(C(F)(F)F)cc12 [MACOZINONE]	> 64	< 0.016	–
CO[C@H]1/C=C/O[C@@]2(C)Oc3c(C)c(O)c4c(O)c(c(/C=N/N5CCN(C)CC5)c(O)c4c3C2=O)NC(=O)/C(C)=C\C=C\[C@H](C)[C@H](O)[C@@H](C)[C@@H](O)[C@@H](C)[C@H](OC(C)=O)[C@@H]1C [RIFAMPIN]	–	0.0382 (≈ 0.0464 µM)	–
